From patent US11178873B2, “Cyclic N-carboxamide compounds useful as herbicides” (FMC CORPORATION, priority 2015, dated 2021)

Legend:
Format in all cases: in vivo
[1] = system: barnyardgrass (Echinochloa crus-galli); assay: Test B flooded paddy test, barnyardgrass; settings: Flood, 250 g ai/ha; scale 0 to 100 (0 no effect, 100 complete control); 13 to 15 d
Summary of the method: (§1)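 Plants at the 2-leaf stage were flooded to 3 cm above soil, and test compounds were applied directly into the paddy water, which was held at that depth throughout. After 13 to 15 d in a greenhouse, injury was rated visually against untreated controls on a 0–100 scale (0 no effect, 100 complete control).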

[2] = system: foxtail, giant (giant foxtail, Setaria faberii); assay: Test A postemergence, foxtail, giant; settings: 0 to 100 scale, 0 no effect, 100 complete control
Summary of the method: (§2)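 Visual injury scores (0 = no effect, 100 = complete control) were assigned roughly 10 d after treatment by comparison with untreated controls. Chemicals, formulated in a non-phytotoxic solvent mixture containing surfactant, were applied as a preemergence directed soil spray or postemergence to one- to two-leaf plants 2 to 10 cm tall.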

[3] = system: barnyardgrass (Echinochloa crus-galli); assay: Test A preemergence, barnyardgrass; settings: 0 to 100 scale, 0 no effect, 100 complete control
Summary of the method: as §2

[4] = system: galium (catchweed bedstraw, Galium aparine); assay: Test A postemergence, galium; settings: 0 to 100 scale, 0 no effect, 100 complete control
Summary of the method: as §2

[5] = system: ragweed (common ragweed, Ambrosia elatior); assay: Test A preemergence, ragweed; settings: 0 to 100 scale, 0 no effect, 100 complete control
Summary of the method: as §2

[6] = system: sedge, umbrella (small-flower umbrella sedge, Cyperus difformis); assay: Test B flooded paddy test, sedge, umbrella; settings: Flood, 250 g ai/ha; scale 0 to 100 (0 no effect, 100 complete control); 13 to 15 d
Summary of the method: as §1

[7] = system: foxtail, giant (giant foxtail, Setaria faberii); assay: Test A preemergence, foxtail, giant; settings: 0 to 100 scale, 0 no effect, 100 complete control
Summary of the method: as §2

[8] = system: wheat (Triticum aestivum); assay: Test A postemergence, wheat; settings: 0 to 100 scale, 0 no effect, 100 complete control
Summary of the method: as §2

[9] = system: barnyardgrass (Echinochloa crus-galli); assay: Test A postemergence, barnyardgrass; settings: 0 to 100 scale, 0 no effect, 100 complete control
Summary of the method: as §2

corn (Zea mays) = assay: Test A postemergence, corn; settings: 0 to 100 scale, 0 no effect, 100 complete control
Summary of the method: as §2

kochia (Kochia scoparia) [10] = assay: Test A postemergence, kochia; settings: 0 to 100 scale, 0 no effect, 100 complete control
Summary of the method: as §2

[11] = system: ryegrass, Italian (Italian ryegrass, Lolium multiflorum); assay: Test A preemergence, ryegrass, Italian; settings: 0 to 100 scale, 0 no effect, 100 complete control
Summary of the method: as §2

[12] = system: ryegrass, Italian (Italian ryegrass, Lolium multiflorum); assay: Test A postemergence, ryegrass, Italian; settings: 0 to 100 scale, 0 no effect, 100 complete control
Summary of the method: as §2

[13] = system: ragweed (common ragweed, Ambrosia elatior); assay: Test A postemergence, ragweed; settings: 0 to 100 scale, 0 no effect, 100 complete control
Summary of the method: as §2

kochia (Kochia scoparia) [14] = assay: Test A preemergence, kochia; settings: 0 to 100 scale, 0 no effect, 100 complete control
Summary of the method: as §2

[15] = system: pigweed (Amaranthus retroflexus); assay: Test A postemergence, pigweed; settings: 0 to 100 scale, 0 no effect, 100 complete control
Summary of the method: as §2

[16] = system: blackgrass (Alopecurus myosuroides); assay: Test A postemergence, blackgrass; settings: 0 to 100 scale, 0 no effect, 100 complete control
Summary of the method: as §2

[17] = system: pigweed (Amaranthus retroflexus); assay: Test A preemergence, pigweed; settings: 0 to 100 scale, 0 no effect, 100 complete control
Summary of the method: as §2

[18] = system: ducksalad (Heteranthera limosa); assay: Test B flooded paddy test, ducksalad; settings: Flood, 250 g ai/ha; scale 0 to 100 (0 no effect, 100 complete control); 13 to 15 d
Summary of the method: as §1

rice (Oryza sativa) = assay: Test B flooded paddy test, rice; settings: Flood, 250 g ai/ha; scale 0 to 100 (0 no effect, 100 complete control); 13 to 15 d
Summary of the method: as §1

Row | Compound | Plant response rating, Barnyardgrass [1] | Plant response rating, Foxtail, Giant ([2]; 31 g ai/ha) | Plant response rating, Foxtail, Giant ([2]; 125 g ai/ha) | Plant response rating, Barnyardgrass ([3]; 31 g ai/ha) | Plant response rating, Barnyardgrass ([3]; 125 g ai/ha) | Plant response rating, Galium ([4]; 31 g ai/ha) | Plant response rating, Galium ([4]; 125 g ai/ha) | Plant response rating, Ragweed ([5]; 31 g ai/ha) | Plant response rating, Ragweed ([5]; 125 g ai/ha) | Plant response rating, Sedge, Umbrella [6] | Plant response rating, Foxtail, Giant ([7]; 31 g ai/ha) | Plant response rating, Foxtail, Giant ([7]; 125 g ai/ha) | Plant response rating, Wheat ([8]; 31 g ai/ha) | Plant response rating, Wheat ([8]; 125 g ai/ha) | Plant response rating, Barnyardgrass ([9]; 31 g ai/ha) | Plant response rating, Barnyardgrass ([9]; 125 g ai/ha) | Plant response rating, Corn (corn (Zea mays); 31 g ai/ha) | Plant response rating, Corn (corn (Zea mays); 125 g ai/ha) | Plant response rating, Kochia (kochia (Kochia scoparia) [10]; 31 g ai/ha) | Plant response rating, Kochia (kochia (Kochia scoparia) [10]; 125 g ai/ha) | also measured
1 | CN1CC(c2cccc(C(F)(F)F)c2)N(C(=O)Nc2ccccc2F)C1=O (stereo not drawn) [Compound 16] | 0 | 0 | 10 | 0 | 30 | 0 | 0 | 0 | 0 | 0 | 30 | 70 | 0 | 0 | 0 | 10 | 0 | 0 | 0 | 0 | Plant response rating, Ryegrass, Italian ([11]; 31 g ai/ha): 0; Plant response rating, Ryegrass, Italian ([11]; 125 g ai/ha): 0; Plant response rating, Ryegrass, Italian ([12]; 31 g ai/ha): 0; Plant response rating, Ryegrass, Italian ([12]; 125 g ai/ha): 0; Plant response rating, Ragweed ([13]; 31 g ai/ha): 0; Plant response rating, Ragweed ([13]; 125 g ai/ha): 0; Plant response rating, Kochia (kochia (Kochia scoparia) [14]; 31 g ai/ha): 0; Plant response rating, Kochia (kochia (Kochia scoparia) [14]; 125 g ai/ha): 0; Plant response rating, Pigweed ([15]; 31 g ai/ha): 0; Plant response rating, Pigweed ([15]; 125 g ai/ha): 0; Plant response rating, Blackgrass ([16]; 31 g ai/ha): 0; Plant response rating, Blackgrass ([16]; 125 g ai/ha): 0; Plant response rating, Pigweed ([17]; 31 g ai/ha): 0; Plant response rating, Pigweed ([17]; 125 g ai/ha): 0; Plant response rating, Ducksalad [18]: 0; Plant response rating, Rice (rice (Oryza sativa)): 0
2 | CN1CC(c2ccc(C(F)(F)F)cc2)N(C(=O)Nc2ccccc2F)C1=O (stereo not drawn) [Compound 13] | 10 | 0 | 0 | 0 | 0 | 0 | 0 | 0 | 0 | 0 | 0 | 0 | 0 | 0 | 0 | 0 | 0 | 0 | 0 | 0 | Plant response rating, Ryegrass, Italian ([11]; 31 g ai/ha): 0; Plant response rating, Ryegrass, Italian ([11]; 125 g ai/ha): 0; Plant response rating, Ryegrass, Italian ([12]; 31 g ai/ha): 0; Plant response rating, Ryegrass, Italian ([12]; 125 g ai/ha): 0; Plant response rating, Ragweed ([13]; 31 g ai/ha): 0; Plant response rating, Ragweed ([13]; 125 g ai/ha): 0; Plant response rating, Kochia (kochia (Kochia scoparia) [14]; 31 g ai/ha): 0; Plant response rating, Kochia (kochia (Kochia scoparia) [14]; 125 g ai/ha): 0; Plant response rating, Pigweed ([15]; 31 g ai/ha): 0; Plant response rating, Pigweed ([15]; 125 g ai/ha): 0; Plant response rating, Blackgrass ([16]; 31 g ai/ha): 0; Plant response rating, Blackgrass ([16]; 125 g ai/ha): 0; Plant response rating, Pigweed ([17]; 31 g ai/ha): 0; Plant response rating, Pigweed ([17]; 125 g ai/ha): 0; Plant response rating, Ducksalad [18]: 70; Plant response rating, Rice (rice (Oryza sativa)): 0
